Reference: ChEMBL document CHEMBL4033618, “Covalently linked kanamycin - Ciprofloxacin hybrid antibiotics as a tool to fight bacterial resistance” (Bioorg Med Chem, 2017)
Values after ≈ are worked out from the molar mass of the structure shown.

Experiments:
Escherichia coli [1] = assay: Ratio of MIC for aminoglycosides-resistant Escherichia coli BL21 harboring pET11d encode for APH(3')-2b resistance enzyme to MIC for Escherichia coli BL21; format: functional
Escherichia coli [2] = assay: Antibacterial activity against kanamycin-resistant Escherichia coli AG100B by double microdilution method; format: functional
Escherichia coli [3] = assay: Antibacterial activity against kanamycin-resistant Escherichia coli AG100A by double microdilution method; format: functional
Escherichia coli [4] = assay: Antibacterial activity against aminoglycosides-susceptible Escherichia coli R477-100 by double microdilution method; format: functional
Escherichia coli [5] = assay: Antibacterial activity against aminoglycosides-susceptible Escherichia coli 25922 by double microdilution method; format: functional; conditions: ATCC 25922
Bacillus subtilis = assay: Antibacterial activity against aminoglycosides-susceptible Bacillus subtilis by double microdilution method; format: functional
[6] = tested on: Staphylococcus epidermidis; assay: Antibacterial activity against aminoglycosides-susceptible Staphylococcus epidermidis by double microdilution method; format: functional
Escherichia coli [7] = assay: Antibacterial activity against Escherichia coli BL21 by double microdilution method; format: functional
Escherichia coli [8] = assay: Antibacterial activity against aminoglycosides-resistant Escherichia coli BL21 harboring pSF815 encode for bifunctional AAC(6')/APH(2\") resistance enzyme by double microdilution method; format: functional
Escherichia coli [9] = assay: Ratio of MIC for aminoglycosides-resistant Escherichia coli BL21 harboring pSF815 encode for bifunctional AAC(6')/APH(2\") resistance enzyme to MIC for Escherichia coli BL21; format: functional
Escherichia coli [10] = assay: Antibacterial activity against aminoglycosides-resistant Escherichia coli BL21 harboring pET11d encode for APH(3')-2b resistance enzyme by double microdilution method; format: functional
Escherichia coli [11] = assay: Antibacterial activity against aminoglycosides-resistant Escherichia coli BL21 harboring pETSACG1 encode for APH(3')-3a resistance enzyme by double microdilution method; format: functional
Escherichia coli [12] = assay: Ratio of MIC for aminoglycosides-resistant Escherichia coli BL21 harboring pETSACG1 encode for APH(3')-3a resistance enzyme to MIC for Escherichia coli BL21; format: functional
Escherichia coli [13] = assay: Antibacterial activity against Escherichia coli XL1 blue by double microdilution method; format: functional
Escherichia coli [14] = assay: Antibacterial activity against Escherichia coli XL1 blue harboring pET9d encode for APH(3')-1a resistance enzyme by double microdilution method; format: functional
Escherichia coli [15] = assay: Ratio of MIC for Escherichia coli XL1 blue harboring pET9d encode for APH(3')-1a resistance enzyme to MIC for Escherichia coli XL1 blue; format: functional
[16] = Inhibition of Escherichia coli DNA gyrase using relaxed pBR322 DNA as substrate by agarose gel electrophorosis method; conditions: read-out: IC50
[17] = Inhibition of Escherichia coli topoisomerase 4 using supercoiled pBR322 DNA as substrate by agarose gel electrophorosis method; conditions: read-out: IC50
Escherichia coli [18] = assay: Inhibition of protein translation in Escherichia coli S30 cell extract using circular DNA with pBESTluc after 60 mins; format: functional; conditions: Escherichia coli, 1 h; read-out: IC50
Escherichia coli [19] = assay: Resistance index, ratio of MIC for Escherichia coli ATCC 35218 in 15th subculture to MIC for Escherichia coli ATCC 35218 in first subculture; format: functional
Bacillus spizizenii = assay: Resistance index, ratio of MIC for Bacillus subtilis ATCC 6633 in 15th subculture to MIC for Bacillus subtilis ATCC 6633 in first subculture; format: functional
[20] = Acute toxicity in iv dosed mouse at pH 6.6 administered for 4 days; format: organism-based; conditions: in vivo

Compound	Ratio (Escherichia coli [1])	MIC (Escherichia coli [2]) [µg/mL]	MIC (Escherichia coli [3]) [µg/mL]	MIC (Escherichia coli [4]) [µg/mL]	MIC (Escherichia coli [5]) [µg/mL]	MIC (Bacillus subtilis) [µg/mL]	MIC [6] [µg/mL]	MIC (Escherichia coli [7]) [µg/mL]	MIC (Escherichia coli [8]) [µg/mL]	Ratio (Escherichia coli [9])	MIC (Escherichia coli [10]) [µg/mL]	MIC (Escherichia coli [11]) [µg/mL]	Ratio (Escherichia coli [12])	MIC (Escherichia coli [13]) [µg/mL]	MIC (Escherichia coli [14]) [µg/mL]	Ratio (Escherichia coli [15])	IC50 (Escherichia coli [18]) [µM]	also measured
NC[C@H]1O[C@H](O[C@H]2[C@H](O)[C@@H](O[C@H]3O[C@H](CO)[C@@H](O)[C@H](N)[C@H]3O)[C@H](NC(=O)CCc3cn(CCOCCN4CCN(c5cc6c(cc5F)c(=O)c(C(=O)O)cn6C5CC5)CC4)nn3)C[C@@H]2N)[C@H](O)[C@@H](O)[C@@H]1O	1	24 (≈ 23.8 µM)	0.75 (≈ 0.743 µM)	12 (≈ 11.9 µM)	6 (≈ 5.95 µM)	9 (≈ 8.92 µM)	24 (≈ 23.8 µM)	0.8 (≈ 0.793 µM)	0.8 (≈ 0.793 µM)	1	0.8 (≈ 0.793 µM)	0.8 (≈ 0.793 µM)	1	12 (≈ 11.9 µM)	12 (≈ 11.9 µM)	1	–	–
NC[C@H]1O[C@H](O[C@H]2[C@H](O)[C@@H](O[C@H]3O[C@H](CO)[C@@H](O)[C@H](N)[C@H]3O)[C@H](NC(=O)CCc3cn(CCN4CCN(c5cc6c(cc5F)c(=O)c(C(=O)O)cn6C5CC5)CC4)nn3)C[C@@H]2N)[C@H](O)[C@@H](O)[C@@H]1O	2	24 (≈ 24.9 µM)	0.75 (≈ 0.777 µM)	6 (≈ 6.22 µM)	3 (≈ 3.11 µM)	6 (≈ 6.22 µM)	18 (≈ 18.7 µM)	0.8 (≈ 0.829 µM)	0.4 (≈ 0.415 µM)	2	0.4 (≈ 0.415 µM)	0.6 (≈ 0.622 µM)	3	24 (≈ 24.9 µM)	18 (≈ 18.7 µM)	1	19.2	IC50 [16]: 9.9 µM; IC50 [17]: > 100 µM
NC[C@H]1O[C@H](O[C@H]2[C@H](O)[C@@H](O[C@H]3O[C@H](CO)[C@@H](O)[C@H](N)[C@H]3O)[C@H](NCc3cn(CC(O)CN4CCN(c5cc6c(cc5F)c(=O)c(C(=O)O)cn6C5CC5)CC4)nn3)C[C@@H]2N)[C@H](O)[C@@H](O)[C@@H]1O (stereo not given in full)	1.5	12 (≈ 12.6 µM)	0.37 (≈ 0.388 µM)	3 (≈ 3.15 µM)	1.5 (≈ 1.57 µM)	1.5 (≈ 1.57 µM)	6 (≈ 6.3 µM)	0.09 (≈ 0.0944 µM)	0.3 (≈ 0.315 µM)	1.5	0.3 (≈ 0.315 µM)	0.3 (≈ 0.315 µM)	1.5	3 (≈ 3.15 µM)	3 (≈ 3.15 µM)	1	1.27	IC50 [16]: 5.9 µM; IC50 [17]: 19.8 µM; Ratio (Escherichia coli [19]): 1.33; Ratio (Bacillus spizizenii): 2
NC[C@H]1O[C@H](O[C@H]2[C@H](O)[C@@H](O[C@H]3O[C@H](CO)[C@@H](O)[C@H](N)[C@H]3O)[C@H](NCc3cn(CCCCCCN4CCN(c5cc6c(cc5F)c(=O)c(C(=O)O)cn6C5CC5)CC4)nn3)C[C@@H]2N)[C@H](O)[C@@H](O)[C@@H]1O	1	24 (≈ 24.5 µM)	1.5 (≈ 1.53 µM)	12 (≈ 12.3 µM)	12 (≈ 12.3 µM)	6 (≈ 6.13 µM)	24 (≈ 24.5 µM)	0.8 (≈ 0.817 µM)	0.8 (≈ 0.817 µM)	1	0.8 (≈ 0.817 µM)	0.8 (≈ 0.817 µM)	1	12 (≈ 12.3 µM)	12 (≈ 12.3 µM)	1	6.46	–
NC[C@@H]1O[C@H](O[C@H]2[C@@H](O)[C@H](O[C@@H]3[C@@H](O)[C@H](N)C[C@H](N)[C@H]3O[C@H]3O[C@H](CN)[C@@H](O)[C@H](O)[C@H]3N)O[C@@H]2CO)[C@H](N)[C@@H](O)[C@@H]1O [FRAMYCETIN]	–	–	–	–	–	–	–	–	–	–	–	–	–	–	–	–	–	LD50 at 96 h [20]: 24 mg/kg
NC[C@H]1O[C@H](O[C@H]2[C@H](O)[C@@H](O[C@H]3O[C@H](CO)[C@@H](O)[C@H](N)[C@H]3O)[C@H](NC(=O)CCc3cn(Cc4cccc(CN5CCN(c6cc7c(cc6F)c(=O)c(C(=O)O)cn7C6CC6)CC5)c4)nn3)C[C@@H]2N)[C@H](O)[C@@H](O)[C@@H]1O	2	48 (≈ 46.1 µM)	1.5 (≈ 1.44 µM)	24 (≈ 23.1 µM)	18 (≈ 17.3 µM)	9 (≈ 8.64 µM)	18 (≈ 17.3 µM)	0.8 (≈ 0.768 µM)	1.5 (≈ 1.44 µM)	2	1.5 (≈ 1.44 µM)	1.5 (≈ 1.44 µM)	2	12 (≈ 11.5 µM)	24 (≈ 23.1 µM)	2	–	–
NC[C@H]1O[C@H](O[C@H]2[C@H](O)[C@@H](O[C@H]3O[C@H](CO)[C@@H](O)[C@H](N)[C@H]3O)[C@H](NC(=O)CCCc3cn(Cc4ccc(CN5CCN(c6cc7c(cc6F)c(=O)c(C(=O)O)cn7C6CC6)CC5)cc4)nn3)C[C@@H]2N)[C@H](O)[C@@H](O)[C@@H]1O	1	24 (≈ 22.7 µM)	0.75 (≈ 0.711 µM)	6 (≈ 5.69 µM)	3 (≈ 2.84 µM)	3 (≈ 2.84 µM)	6 (≈ 5.69 µM)	0.8 (≈ 0.758 µM)	0.8 (≈ 0.758 µM)	1	0.8 (≈ 0.758 µM)	0.8 (≈ 0.758 µM)	1	6 (≈ 5.69 µM)	–	–	2.19	–
NC[C@H]1O[C@H](O[C@H]2[C@H](O)[C@@H](O[C@H]3O[C@H](CO)[C@@H](O)[C@H](N)[C@H]3O)[C@H](NCc3cn(Cc4ccc(CN5CCN(c6cc7c(cc6F)c(=O)c(C(=O)O)cn7C6CC6)CC5)cc4)nn3)C[C@@H]2N)[C@H](O)[C@@H](O)[C@@H]1O	1	12 (≈ 12 µM)	0.28 (≈ 0.28 µM)	6 (≈ 6.01 µM)	6 (≈ 6.01 µM)	3 (≈ 3 µM)	3 (≈ 3 µM)	0.8 (≈ 0.801 µM)	0.1 (≈ 0.1 µM)	1	0.1 (≈ 0.1 µM)	0.1 (≈ 0.1 µM)	1	3 (≈ 3 µM)	3 (≈ 3 µM)	1	10.7	IC50 [16]: 2.6 µM; IC50 [17]: 7.9 µM; Ratio (Escherichia coli [19]): 4; Ratio (Bacillus spizizenii): 4
NC[C@H]1O[C@H](O[C@H]2[C@H](O)[C@@H](O[C@H]3O[C@H](CO)[C@@H](O)[C@H](N)[C@H]3O)[C@H](NC(=O)CCc3cn(Cc4ccc(CN5CCN(c6cc7c(cc6F)c(=O)c(C(=O)O)cn7C6CC6)CC5)cc4)nn3)C[C@@H]2N)[C@H](O)[C@@H](O)[C@@H]1O	2	48 (≈ 46.1 µM)	3 (≈ 2.88 µM)	36 (≈ 34.6 µM)	24 (≈ 23.1 µM)	6 (≈ 5.76 µM)	18 (≈ 17.3 µM)	0.8 (≈ 0.768 µM)	1.5 (≈ 1.44 µM)	2	1.5 (≈ 1.44 µM)	0.8 (≈ 0.768 µM)	1	24 (≈ 23.1 µM)	24 (≈ 23.1 µM)	1	–	–
NC[C@H]1O[C@H](O[C@H]2[C@H](O)[C@@H](O[C@H]3O[C@H](CO)[C@@H](O)[C@H](N)[C@H]3O)[C@H](NC(=O)CCCc3cn(CC(O)CN4CCN(c5cc6c(cc5F)c(=O)c(C(=O)O)cn6C5CC5)CC4)nn3)C[C@@H]2N)[C@H](O)[C@@H](O)[C@@H]1O (stereo not given in full)	–	–	–	12 (≈ 11.9 µM)	6 (≈ 5.95 µM)	1.5 (≈ 1.49 µM)	24 (≈ 23.8 µM)	–	–	–	–	–	–	–	–	–	–	–
NC[C@H]1O[C@H](O[C@H]2[C@H](O)[C@@H](O[C@H]3O[C@H](CO)[C@@H](O)[C@H](N)[C@H]3O)[C@H](NCc3cn(CCN4CCN(c5cc6c(cc5F)c(=O)c(C(=O)O)cn6C5CC5)CC4)nn3)C[C@@H]2N)[C@H](O)[C@@H](O)[C@@H]1O	–	–	–	6 (≈ 6.5 µM)	3 (≈ 3.25 µM)	1.5 (≈ 1.63 µM)	6 (≈ 6.5 µM)	0.2 (≈ 0.217 µM)	–	–	–	–	–	–	–	–	8.14	–
NC[C@H]1O[C@H](O[C@H]2[C@H](O)[C@@H](O[C@H]3O[C@H](CO)[C@@H](O)[C@H](N)[C@H]3O)[C@H](NC(=O)CCc3cn(CC(O)CN4CCN(c5cc6c(cc5F)c(=O)c(C(=O)O)cn6C5CC5)CC4)nn3)C[C@@H]2N)[C@H](O)[C@@H](O)[C@@H]1O (stereo not given in full)	1	24 (≈ 24.1 µM)	1.5 (≈ 1.51 µM)	12 (≈ 12.1 µM)	6 (≈ 6.03 µM)	9 (≈ 9.04 µM)	36 (≈ 36.2 µM)	0.2 (≈ 0.201 µM)	1.5 (≈ 1.51 µM)	1	1.5 (≈ 1.51 µM)	1.5 (≈ 1.51 µM)	1	24 (≈ 24.1 µM)	24 (≈ 24.1 µM)	1	–	–
NCC[C@H](O)C(=O)N[C@@H]1C[C@H](N)[C@@H](O[C@H]2O[C@H](CN)[C@@H](O)[C@H](O)[C@H]2O)[C@H](O)[C@H]1O[C@H]1O[C@H](CO)[C@@H](O)[C@H](N)[C@H]1O [AMIKACIN]	–	–	–	–	–	–	–	–	–	–	–	–	–	–	–	–	–	LD50 at 96 h [20]: 300 mg/kg
NC[C@H]1O[C@H](O[C@H]2[C@H](O)[C@@H](O[C@H]3O[C@H](CO)[C@@H](O)[C@H](N)[C@H]3O)[C@H](NCc3cn(Cc4cccc(CN5CCN(c6cc7c(cc6F)c(=O)c(C(=O)O)cn7C6CC6)CC5)c4)nn3)C[C@@H]2N)[C@H](O)[C@@H](O)[C@@H]1O	1	36 (≈ 36 µM)	1.5 (≈ 1.5 µM)	36 (≈ 36 µM)	24 (≈ 24 µM)	12 (≈ 12 µM)	18 (≈ 18 µM)	1.5 (≈ 1.5 µM)	0.8 (≈ 0.801 µM)	1	0.8 (≈ 0.801 µM)	0.8 (≈ 0.801 µM)	1	12 (≈ 12 µM)	24 (≈ 24 µM)	2	–	–
